Patent US20130101972A1, “METHODS FOR REDUCING RISK” (SANOFI, priority 2009, published 2013)

Tests used:
Assay type in all cases: in vivo, human
[1] = system: patients with atrial fibrillation (AF) or atrial flutter (AFL) or a history of AF or AFL; test: Clinical efficacy in patients with AF or AFL: cardiovascular hospitalization; details: 400 mg twice daily (BID)
Source text: (§1) The safety of dronedarone has been evaluated in a clinical development program that included, as of 12 Mar. 2008, a total of 8276 treated patients/healthy subjects in 55 completed studies. Of these, 4794 patients/healthy subjects received dronedarone.

[2] = system: patients with severe heart failure; test: ANDROMEDA study, placebo-controlled, in patients with left ventricular dysfunction hospitalized with symptomatic HF; details: versus placebo, patients with severe heart failure requiring recent hospitalization or referral
Protocol: The present invention relates to the following identified and potential risk of dronedarone: mortality in patients with severe heart failure (HF) during treatment. The study referred to as ANDROMEDA was conducted in 627 patients with left ventricular dysfunction, hospitalized with symptomatic HF, requiring treatment with a diuretic, who have had within the last month at least 1 episode of dyspnea or fatigue at rest, or on slight exertion. […] The study was stopped prematurely due to an observed imbalance of deaths in the dronedarone group [n=25 versus 12 (placebo), p=0.027]. The main reason for death was worsening heart failure. Clinical judgment of the physician should guide the management plan of each patient based on individual benefit/risk assessment.

patients with AF/AFL = test: Pooled safety analysis of 5 controlled AF/AFL clinical studies, dronedarone 400 mg BID versus placebo
Source text: as §1
Patients with the claimed indication of AF/AFL were included in 5 controlled clinical studies representing 88% (6285 patients) of the exposed patient population (7109 patients). Other patient populations, representing 14% (1028 patients) of the exposed patient population, were included in 13 clinical studies in patients with other cardiac conditions and patients with renal and hepatic impairment.
The safety profile of dronedarone 400 mg BID is derived from analysis of the 3282 patients in the 5 AF/AFL studies who were treated with dronedarone 400 mg BID and the 2875 who received placebo. The mean duration of exposure across the 5 studies in the dronedarone 400 mg BID group was 13.5 months, representing total exposure of 3684 patient-years. In the ATHENA study, the maximum follow-up was 30 months.
Discontinuation due to adverse reactions occurred in 11.8% of patients in the dronedarone 400 mg BID group and 7.7% in the placebo-treated group. The most common adverse events causing discontinuation of therapy with dronedarone 400 mg BID were gastrointestinal disorders (3.2% of patients versus 1.8% in the placebo group).

With `CCCCc1oc2ccc(NS(C)(=O)=O)cc2c1C(=O)c1ccc(OCCCN(CCCC)CCCC)cc1` [dronedarone, 2-n-butyl-3-[4-(3-di-n-butylaminopropoxy)benzoyl]-5-methylsulfonamido-benzofuran] the “Reduction of the risk of cardiovascular hospitalization” value [1] was “effective for reduction of the risk of cardiovascular hospitalization”, the Increase in mortality [2] was “greater than two-fold increase in mortality” and the “Most frequent investigation abnormalities” value (patients with AF/AFL; dronedarone 400 mg BID) was “QT prolongation and increase in serum creatinine”. For the same compound, the “Discontinuation due to adverse reactions” value (patients with AF/AFL; dronedarone 400 mg BID group, 5 AF/AFL studies, placebo 7.7%) was 11.8 % of patients, the “Most frequent clinical adverse reactions” value (patients with AF/AFL; dronedarone 400 mg BID, 5 studies) was “diarrhea, nausea and vomiting, fatigue, asthenia, bradycardia, and rashes” and the “Gastrointestinal disorders causing discontinuation of therapy (most common adverse events causing discontinuation)” value (patients with AF/AFL; dronedarone 400 mg BID, placebo 1.8%) was 3.2 % of patients. For the same compound, the “Effect of intrinsic factors (race, gender, age) on incidence of any treatment-emergent adverse events” value (patients with AF/AFL; subgroup assessment) was “did not suggest any excess of adverse events in a particular subgroup” and the “Change in serum creatinine” value (patients with AF/AFL; within a week, does not reflect a change in underlying renal function) was “small change in serum creatinine”.
